From US9788552B2, “Use of a natural grape marc extract in order to stimulate the natural defenses of plants” (CENTRE NATIONAL DE LA RECHERCHE SCIENTIFIQUE—CNRS, priority 2010, dated 2017)

System: tobacco leaf
Assay: Tobacco leaf infiltration tests, macroscopic symptoms under white light
Assay type: in vivo
Details: 50 μl, 8 days after infiltration
Description: Various tobacco leaf infiltration tests were carried out with 50 μl of solution as follows: Eight days after infiltration, macroscopic symptoms were observed under white light and under UV light (wavelength=312 nm). In the figures, the numbers correspond to the spot of infiltration of the test of the same number.

SMILES	chlorosis or necrosis at the infiltrated sites (10 mM, white light (Test 6))	necrosis in infiltrated foliar tissues (2 mM, white light (Test 7, positive control))
CC(N)CC(=O)O (stereo not drawn) [BABA, β-aminobutyric acid]	do not induce chlorosis or necrosis	
O=C(O)c1ccccc1O [Salicylic acid, salicylic acid]		causes necrosis
